Assay results as given in PubChem BioAssay (NCI).
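These data come from cells grown in 96-well plates and exposed to compound for 48 hours at five concentrations. GI50: concentration for 50% inhibition of growth. TGI: total growth inhibition.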

Legend:
Test in all cases: DTP human tumour cell line panel, 48 h
RXF 393 renal = system: RXF 393 renal
SF-295 CNS = system: SF-295 CNS
SK-MEL-2 melanoma = system: SK-MEL-2 melanoma
SW-620 colon = system: SW-620 colon
HCT-15 colon = system: HCT-15 colon
SK-MEL-5 melanoma = system: SK-MEL-5 melanoma
CAKI-1 renal = system: CAKI-1 renal
RPMI-8226 leukemia = system: RPMI-8226 leukemia
COLO 205 colon = system: COLO 205 colon
OVCAR-3 ovarian = system: OVCAR-3 ovarian
UO-31 renal = system: UO-31 renal
TK-10 renal = system: TK-10 renal
OVCAR-8 ovarian = system: OVCAR-8 ovarian
T-47D breast = system: T-47D breast
U251 CNS = system: U251 CNS
SN12C renal = system: SN12C renal
NCI-H226 lung = system: NCI-H226 lung
SK-MEL-28 melanoma = system: SK-MEL-28 melanoma
MDA-MB-435 = system: MDA-MB-435
HCT-116 colon = system: HCT-116 colon
K-562 leukemia = system: K-562 leukemia
SR leukemia = system: SR leukemia
SNB-19 CNS = system: SNB-19 CNS
A498 renal = system: A498 renal
SF-539 CNS = system: SF-539 CNS
UACC-62 melanoma = system: UACC-62 melanoma
HCC-2998 colon = system: HCC-2998 colon
SK-OV-3 ovarian = system: SK-OV-3 ovarian
NCI/ADR-RES ovarian = system: NCI/ADR-RES ovarian
UACC-257 melanoma = system: UACC-257 melanoma
MOLT-4 leukemia = system: MOLT-4 leukemia
786-0 renal = system: 786-0 renal
SF-268 CNS = system: SF-268 CNS
IGROV1 ovarian = system: IGROV1 ovarian
HS 578T breast = system: HS 578T breast
HL-60(TB) leukemia = system: HL-60(TB) leukemia
LOX IMVI melanoma = system: LOX IMVI melanoma
MALME-3M melanoma = system: MALME-3M melanoma
OVCAR-4 ovarian = system: OVCAR-4 ovarian
PC-3 prostate = system: PC-3 prostate
CCRF-CEM leukemia = system: CCRF-CEM leukemia
M14 melanoma = system: M14 melanoma
ACHN renal = system: ACHN renal
MDA-MB-231 breast = system: MDA-MB-231 breast
KM12 colon = system: KM12 colon
A549 NSCLC = system: A549 NSCLC
SNB-75 CNS = system: SNB-75 CNS
BT-549 breast = system: BT-549 breast
DU-145 prostate = system: DU-145 prostate
OVCAR-5 ovarian = system: OVCAR-5 ovarian
HT29 colon = system: HT29 colon
MCF7 breast = system: MCF7 breast
NCI-H460 lung = system: NCI-H460 lung
HOP-92 NSCLC = system: HOP-92 NSCLC
EKVX NSCLC = system: EKVX NSCLC
HOP-62 NSCLC = system: HOP-62 NSCLC
NCI-H23 lung = system: NCI-H23 lung
NCI-H522 lung = system: NCI-H522 lung

Work on `Cc1cc(F)cc(NS(=O)(=O)c2ccc(-c3cnc(C4CC4)o3)cc2)c1` yielded a GI50 (RXF 393 renal) of 161 nM, a TGI (RXF 393 renal) of 603 nM and a GI50 (SF-295 CNS) of 127 nM. The TGI (SF-295 CNS) was 3490 nM, the GI50 (SK-MEL-2 melanoma) was 1030 nM and the TGI (SK-MEL-2 melanoma) was 15500 nM. The GI50 (SW-620 colon) was 98.8 nM, the TGI (SW-620 colon) was 14400 nM and the GI50 (HCT-15 colon) was 83.6 nM. For the same compound, the TGI (HCT-15 colon) was 11400 nM, the GI50 (SK-MEL-5 melanoma) was 266 nM and the TGI (SK-MEL-5 melanoma) was 1890 nM. It also gave a GI50 (CAKI-1 renal) of 86.9 nM, a TGI (CAKI-1 renal) of 13100 nM and a GI50 (RPMI-8226 leukemia) of 179 nM. For the same compound, the TGI (RPMI-8226 leukemia) was 1870 nM, the GI50 (COLO 205 colon) was 246 nM and the TGI (COLO 205 colon) was 1760 nM. It also gave a GI50 (OVCAR-3 ovarian) of 52.3 nM, a TGI (OVCAR-3 ovarian) of 11000 nM and a GI50 (UO-31 renal) of 848 nM. The TGI (UO-31 renal) was 12600 nM, the GI50 (TK-10 renal) was 3170 nM and the TGI (TK-10 renal) was 16700 nM. It also gave a GI50 (OVCAR-8 ovarian) of 735 nM, a TGI (OVCAR-8 ovarian) of 14700 nM and a GI50 (T-47D breast) of 268 nM. The TGI (T-47D breast) was 21800 nM, the GI50 (U251 CNS) was 451 nM and the TGI (U251 CNS) was 14500 nM. It also gave a GI50 (SN12C renal) of 773 nM, a TGI (SN12C renal) of 11600 nM and a GI50 (NCI-H226 lung) of 489 nM. The TGI (NCI-H226 lung) was 7820 nM, the GI50 (SK-MEL-28 melanoma) was 1890 nM and the TGI (SK-MEL-28 melanoma) was 16600 nM. It also gave a GI50 (MDA-MB-435) of 31.4 nM, a TGI (MDA-MB-435) of 145 nM and a GI50 (HCT-116 colon) of 225 nM. It also gave a TGI (HCT-116 colon) of 10900 nM, a GI50 (K-562 leukemia) of 49.4 nM and a TGI (K-562 leukemia) of 12300 nM. For the same compound, the GI50 (SR leukemia) was 46.4 nM, the TGI (SR leukemia) was 5910 nM and the GI50 (SNB-19 CNS) was 441 nM. For the same compound, the TGI (SNB-19 CNS) was 15000 nM, the GI50 (A498 renal) was 76.2 nM and the TGI (A498 renal) was 1010 nM. The GI50 (SF-539 CNS) was 271 nM, the TGI (SF-539 CNS) was 2990 nM and the GI50 (UACC-62 melanoma) was 122 nM. For the same compound, the TGI (UACC-62 melanoma) was 8860 nM, the GI50 (HCC-2998 colon) was 739 nM and the TGI (HCC-2998 colon) was 10700 nM. The GI50 (SK-OV-3 ovarian) was 748 nM, the TGI (SK-OV-3 ovarian) was 15400 nM and the GI50 (NCI/ADR-RES ovarian) was 120 nM. The TGI (NCI/ADR-RES ovarian) was 5290 nM, the GI50 (UACC-257 melanoma) was 1770 nM and the TGI (UACC-257 melanoma) was 12100 nM. For the same compound, the GI50 (MOLT-4 leukemia) was 366 nM, the TGI (MOLT-4 leukemia) was 15400 nM and the GI50 (786-0 renal) was 752 nM. It also gave a TGI (786-0 renal) of 16400 nM, a GI50 (SF-268 CNS) of 1500 nM and a TGI (SF-268 CNS) of 13200 nM. It also gave a GI50 (IGROV1 ovarian) of 252 nM, a TGI (IGROV1 ovarian) of 13600 nM and a GI50 (HS 578T breast) of 303 nM. The TGI (HS 578T breast) was 7850 nM, the GI50 (HL-60(TB) leukemia) was 99.3 nM and the TGI (HL-60(TB) leukemia) was 769 nM. The GI50 (LOX IMVI melanoma) was 301 nM, the TGI (LOX IMVI melanoma) was 12700 nM and the GI50 (MALME-3M melanoma) was 837 nM. It also gave a TGI (MALME-3M melanoma) of 20900 nM, a GI50 (OVCAR-4 ovarian) of 967 nM and a TGI (OVCAR-4 ovarian) of 15200 nM. It also gave a GI50 (PC-3 prostate) of 342 nM, a TGI (PC-3 prostate) of 12300 nM and a GI50 (CCRF-CEM leukemia) of 199 nM. The TGI (CCRF-CEM leukemia) was 13500 nM, the GI50 (M14 melanoma) was 285 nM and the TGI (M14 melanoma) was 13000 nM. The GI50 (ACHN renal) was 648 nM, the TGI (ACHN renal) was 12800 nM and the GI50 (MDA-MB-231 breast) was 827 nM. For the same compound, the TGI (MDA-MB-231 breast) was 13600 nM, the GI50 (KM12 colon) was 183 nM and the TGI (KM12 colon) was 11600 nM. For the same compound, the GI50 (A549 NSCLC) was 662 nM, the TGI (A549 NSCLC) was 14300 nM and the GI50 (SNB-75 CNS) was 159 nM. It also gave a TGI (SNB-75 CNS) of 1570 nM, a GI50 (BT-549 breast) of 1010 nM and a TGI (BT-549 breast) of 9820 nM. The GI50 (DU-145 prostate) was 421 nM, the TGI (DU-145 prostate) was 13800 nM and the GI50 (OVCAR-5 ovarian) was 926 nM. The TGI (OVCAR-5 ovarian) was 15500 nM, the GI50 (HT29 colon) was 105 nM and the TGI (HT29 colon) was 12200 nM. For the same compound, the GI50 (MCF7 breast) was 80.6 nM, the TGI (MCF7 breast) was 12100 nM and the GI50 (NCI-H460 lung) was 142 nM. For the same compound, the TGI (NCI-H460 lung) was 2030 nM, the GI50 (HOP-92 NSCLC) was 422 nM and the TGI (HOP-92 NSCLC) was 5040 nM. For the same compound, the GI50 (EKVX NSCLC) was 591 nM, the TGI (EKVX NSCLC) was 13900 nM and the GI50 (HOP-62 NSCLC) was 362 nM. The TGI (HOP-62 NSCLC) was 14600 nM, the GI50 (NCI-H23 lung) was 585 nM and the TGI (NCI-H23 lung) was 12600 nM. The GI50 (NCI-H522 lung) was 372 nM and the TGI (NCI-H522 lung) was 10800 nM.
